For one test, the system named is 4T1 breast cancer cells. The test can be described thus: Cancer cell viability under chemotherapeutic drugs in blank cryogels or HICs. It is filed as cell-based. The note with it: for IC50: Mus musculus. The method, then: IC50 was calculated using a linear regression in the linear part of each curve (Y=mX+n with Y=50 and X=IC50). Data are representative of n=6 samples per set of conditions.
(§1) Data are representative of n=6 samples per set of conditions.
(§2) The capacity of HICs to prevent cancer cell death when exposed to chemotherapeutic drugs was analyzed. 4T1 breast cancer cells or B16-F10 melanoma cells were cultured in normoxia within blank cryogels or HICs and treated with several concentrations of doxorubicin or cisplatin (0.1-100 μM) for 24 h, 48 h, or 72 h. Both 4T1 (FIGS. 24 and 25) and B16-F10 (FIGS. 26 and 27) cells within blank cryogels were sensitive to doxorubicin treatment. […] HICs induced up to 100-fold increase in cancer cell resistance to cisplatin after 72 h compared to blank cryogels.

The next test relates to B16-F10 melanoma cells. The description is as above. It is filed as cell-based. The conditions noted are these: for IC50: Mus musculus. The protocol: as §1, §2
Setting [1] is: after 72 h, stated for 4T1 and B16-F10 together.

`N.N.[Cl][Pt][Cl]` [cisplatin]: the “increase in cancer cell resistance in HICs compared to blank cryogels” value in the test with 4T1 breast cancer cells (setting [1]) and with B16-F10 melanoma cells (setting [1]) was “up to 100 fold” in each case.

`COc1cccc2c1C(=O)c1c(O)c3c(c(O)c1C2=O)C[C@@](O)(C(=O)CO)C[C@@H]3O[C@H]1C[C@H](N)[C@H](O)[C@H](C)O1` [doxorubicin]: the half-inhibitory concentration (IC50) is 56.8 µM in the test on 4T1 breast cancer cells (4T1, 24 h, 4T1 cells in HICs, 24 h); 1.08 µM with 4T1 breast cancer cells (4T1, 24 h, 4T1 cells within blank cryogels, 24 h); 50.7 µM with 4T1 breast cancer cells (4T1, 48 h, 4T1 cells in HICs, 48 h); 0.55 µM in the test with 4T1 breast cancer cells (4T1, 48 h, 4T1 cells within blank cryogels, 48 h); 47.2 µM in the test with 4T1 breast cancer cells (4T1, 72 h, 4T1 cells in HICs, 72 h); 0.33 µM in the test on 4T1 breast cancer cells (4T1, 72 h, 4T1 cells within blank cryogels, 72 h). Moreover, the IC50 in the test with B16-F10 melanoma cells (B16-F10, 24 h, B16-F10 cells in HICs, 24 h) stood at 55.7 µM; in the test with B16-F10 melanoma cells (B16-F10, 24 h, B16-F10 cells within blank cryogels, 24 h) it was 0.91 µM; with B16-F10 melanoma cells (B16-F10, 48 h, B16-F10 cells in HICs, 48 h) it was 46.2 µM; in the test with B16-F10 melanoma cells (B16-F10, 48 h, B16-F10 cells within blank cryogels, 48 h), 0.37 µM; in the test on B16-F10 melanoma cells (B16-F10, 72 h, B16-F10 cells in HICs, 72 h), 47.2 µM; in the test with B16-F10 melanoma cells (B16-F10, 72 h, B16-F10 cells within blank cryogels, 72 h) it was 0.38 µM.

These data come from US20220175954A1, “HYPOXIA-INDUCING CRYOGELS” (priority 2019, published 2022).
